Source: patent publication US11655235B2, “Pyrrolidine and piperidine compounds” (YUHAN CORPORATION, priority 2019, dated 2023)
Like-named read-outs stand apart in the source and are kept apart here.

Experiments:
Assay type in all cases: biochemical
DPP4 = DPP4 (Homo sapiens, UniProt P27487); assay: DPP4 inhibition, fluorogenic substrate H-Gly-Pro-AMC; set-up: purchased R&D Systems
recombinant human DPP7 = biological target: T1, recombinant human DPP7 (Homo sapiens, UniProt Q9UHL4); assay: DPP7 inhibition, fluorogenic substrate Lys-Pro-AMC
T1 construct: purchased R&D Systems
Method in brief: (§1)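 Inhibitors are titrated in an 8-point series into the enzyme's assay buffer (DMSO no more than 0.5%). Substrate cleavage at 25 °C is followed by fluorescence, excitation 380 nm and emission 460 nm. IC50 values come from a four-variable logistic model.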

recombinant human DPP8 = biological target: T2, recombinant human DPP8 (Homo sapiens, UniProt Q6V1X1); assay: DPP8 inhibition, fluorogenic substrate Z-Ala-Pro-AMC
T2 construct: purchased PBS Bioscience
Method in brief: as §1

Recombinant human FAP = biological target: T3, Recombinant human FAP (Homo sapiens, UniProt Q12884); assay: FAP inhibition, fluorogenic substrate Z-Gly-Pro-AMC
T3 construct: purchased R&D systems
T3 sequence (Q12884 1-760): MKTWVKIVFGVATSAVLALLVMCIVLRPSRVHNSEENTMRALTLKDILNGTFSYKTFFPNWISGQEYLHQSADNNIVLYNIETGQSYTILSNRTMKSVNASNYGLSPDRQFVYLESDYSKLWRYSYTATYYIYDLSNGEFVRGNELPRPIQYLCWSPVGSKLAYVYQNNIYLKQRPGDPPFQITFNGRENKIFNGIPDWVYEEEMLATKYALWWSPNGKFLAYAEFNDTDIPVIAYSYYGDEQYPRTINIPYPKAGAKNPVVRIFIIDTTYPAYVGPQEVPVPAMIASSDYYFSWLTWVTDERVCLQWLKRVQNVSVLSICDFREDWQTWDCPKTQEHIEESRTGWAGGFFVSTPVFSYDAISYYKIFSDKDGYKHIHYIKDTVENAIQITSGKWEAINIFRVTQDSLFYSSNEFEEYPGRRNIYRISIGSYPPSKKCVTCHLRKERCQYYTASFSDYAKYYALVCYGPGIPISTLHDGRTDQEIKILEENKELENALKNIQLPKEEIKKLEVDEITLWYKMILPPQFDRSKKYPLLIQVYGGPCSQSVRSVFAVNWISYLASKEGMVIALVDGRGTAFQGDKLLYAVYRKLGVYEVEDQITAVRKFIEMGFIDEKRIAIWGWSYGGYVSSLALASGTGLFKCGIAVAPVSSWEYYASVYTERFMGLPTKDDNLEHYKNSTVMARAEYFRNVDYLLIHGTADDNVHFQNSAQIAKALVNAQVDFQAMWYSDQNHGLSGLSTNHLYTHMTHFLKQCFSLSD
Method in brief: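 Eight-point compound dilutions (≤0.1% DMSO) were incubated at 25° C with 10 ng recombinant human FAP in Tris pH 7.5/1 M NaCl/BSA buffer and Z-Gly-Pro-AMC. Inhibition was taken as % drop in fluorescence rate (380/460 nm) against uninhibited control; IC50 came from a four-parameter logistic fit.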

recombinant human PREP = biological target: T4, recombinant human PREP (Homo sapiens, UniProt P48147); assay: PREP inhibition, fluorogenic substrate Z-Gly-Pro-AMC; details: Inhibitory Activity (IC50, nM) PREP
T4 construct: purchased R&D System
T4 sequence (P48147 1-710): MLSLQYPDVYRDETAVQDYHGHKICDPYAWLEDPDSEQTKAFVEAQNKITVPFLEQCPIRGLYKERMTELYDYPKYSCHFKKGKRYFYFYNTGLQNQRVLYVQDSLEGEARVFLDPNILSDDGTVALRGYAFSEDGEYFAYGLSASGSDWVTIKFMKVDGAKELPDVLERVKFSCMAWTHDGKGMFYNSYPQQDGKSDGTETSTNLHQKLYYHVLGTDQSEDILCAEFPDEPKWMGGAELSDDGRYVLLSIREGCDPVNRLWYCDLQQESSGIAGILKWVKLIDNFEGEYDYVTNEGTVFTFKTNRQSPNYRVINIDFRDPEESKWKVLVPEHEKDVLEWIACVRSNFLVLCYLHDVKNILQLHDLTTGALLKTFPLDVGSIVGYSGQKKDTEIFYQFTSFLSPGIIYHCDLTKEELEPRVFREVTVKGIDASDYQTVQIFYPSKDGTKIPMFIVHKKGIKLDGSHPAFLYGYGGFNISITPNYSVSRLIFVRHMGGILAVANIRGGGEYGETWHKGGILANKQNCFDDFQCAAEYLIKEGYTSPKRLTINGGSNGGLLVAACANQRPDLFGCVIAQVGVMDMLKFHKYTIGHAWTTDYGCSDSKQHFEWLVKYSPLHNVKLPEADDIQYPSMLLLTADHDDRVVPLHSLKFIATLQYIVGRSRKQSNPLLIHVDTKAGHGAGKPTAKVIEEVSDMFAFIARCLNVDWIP
Method in brief: as §1

recombinant human DPP9 = biological target: T5, recombinant human DPP9 (Homo sapiens, UniProt Q86TI2); assay: DPP9 inhibition, fluorogenic substrate H-Gly-Pro-AMC
T5 construct: purchased R&D Systems
Method in brief: as §1

[1] = recombinant human FAP, substrate Z-Gly-Pro-AMC
[2] = 25° C., Z-Ala-Pro-AMC substrate
[3] = 25° C., Z-Gly-Pro-AMC substrate
[4] = 25° C., H-Gly-Pro-AMC substrate

T5 sequence (Q86TI2 whole entry): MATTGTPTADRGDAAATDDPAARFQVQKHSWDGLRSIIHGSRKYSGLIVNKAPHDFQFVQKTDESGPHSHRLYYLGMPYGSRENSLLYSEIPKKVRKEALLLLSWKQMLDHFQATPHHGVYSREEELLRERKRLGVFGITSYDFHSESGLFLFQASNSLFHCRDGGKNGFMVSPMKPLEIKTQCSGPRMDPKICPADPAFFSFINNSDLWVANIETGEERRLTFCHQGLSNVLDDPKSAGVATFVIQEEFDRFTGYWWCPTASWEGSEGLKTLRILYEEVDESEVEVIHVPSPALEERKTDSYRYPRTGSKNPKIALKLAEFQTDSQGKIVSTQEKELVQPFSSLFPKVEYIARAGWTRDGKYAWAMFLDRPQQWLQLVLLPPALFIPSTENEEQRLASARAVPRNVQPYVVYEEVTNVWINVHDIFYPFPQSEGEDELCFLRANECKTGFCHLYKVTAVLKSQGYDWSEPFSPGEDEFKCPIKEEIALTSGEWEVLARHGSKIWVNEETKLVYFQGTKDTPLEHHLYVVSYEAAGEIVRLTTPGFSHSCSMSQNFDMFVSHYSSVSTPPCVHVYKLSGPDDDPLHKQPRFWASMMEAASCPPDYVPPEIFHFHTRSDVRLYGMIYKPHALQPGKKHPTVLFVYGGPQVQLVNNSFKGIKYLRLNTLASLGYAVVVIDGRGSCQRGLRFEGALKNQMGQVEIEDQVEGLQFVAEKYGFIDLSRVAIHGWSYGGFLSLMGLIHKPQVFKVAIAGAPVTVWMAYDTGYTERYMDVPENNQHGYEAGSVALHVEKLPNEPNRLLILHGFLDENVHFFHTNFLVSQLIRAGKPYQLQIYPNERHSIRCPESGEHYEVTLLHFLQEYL
T2 sequence (Q6V1X1 whole entry): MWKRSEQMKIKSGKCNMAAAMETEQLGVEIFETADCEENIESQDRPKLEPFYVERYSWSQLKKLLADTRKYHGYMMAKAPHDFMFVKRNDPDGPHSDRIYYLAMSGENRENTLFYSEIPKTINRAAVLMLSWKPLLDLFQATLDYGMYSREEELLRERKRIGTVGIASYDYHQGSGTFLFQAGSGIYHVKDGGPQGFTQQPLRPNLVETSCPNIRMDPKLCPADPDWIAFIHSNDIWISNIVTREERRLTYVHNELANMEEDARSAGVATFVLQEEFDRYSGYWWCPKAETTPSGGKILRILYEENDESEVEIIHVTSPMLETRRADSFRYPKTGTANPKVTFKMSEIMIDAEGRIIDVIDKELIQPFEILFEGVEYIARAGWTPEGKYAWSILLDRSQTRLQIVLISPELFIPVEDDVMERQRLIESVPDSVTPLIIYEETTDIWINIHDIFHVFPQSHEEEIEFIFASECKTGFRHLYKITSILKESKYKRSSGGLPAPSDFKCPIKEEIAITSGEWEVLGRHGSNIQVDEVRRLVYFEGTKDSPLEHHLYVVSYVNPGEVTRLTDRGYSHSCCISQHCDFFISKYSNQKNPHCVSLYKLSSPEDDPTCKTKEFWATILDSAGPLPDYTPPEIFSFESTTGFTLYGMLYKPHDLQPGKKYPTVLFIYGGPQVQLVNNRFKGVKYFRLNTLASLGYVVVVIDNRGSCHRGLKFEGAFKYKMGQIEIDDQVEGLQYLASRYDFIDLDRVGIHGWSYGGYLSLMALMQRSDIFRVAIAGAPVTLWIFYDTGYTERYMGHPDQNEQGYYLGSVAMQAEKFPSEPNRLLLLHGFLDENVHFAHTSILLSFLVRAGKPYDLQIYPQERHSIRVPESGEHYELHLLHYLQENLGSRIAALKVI
DPP4, sequence (P27487 whole entry): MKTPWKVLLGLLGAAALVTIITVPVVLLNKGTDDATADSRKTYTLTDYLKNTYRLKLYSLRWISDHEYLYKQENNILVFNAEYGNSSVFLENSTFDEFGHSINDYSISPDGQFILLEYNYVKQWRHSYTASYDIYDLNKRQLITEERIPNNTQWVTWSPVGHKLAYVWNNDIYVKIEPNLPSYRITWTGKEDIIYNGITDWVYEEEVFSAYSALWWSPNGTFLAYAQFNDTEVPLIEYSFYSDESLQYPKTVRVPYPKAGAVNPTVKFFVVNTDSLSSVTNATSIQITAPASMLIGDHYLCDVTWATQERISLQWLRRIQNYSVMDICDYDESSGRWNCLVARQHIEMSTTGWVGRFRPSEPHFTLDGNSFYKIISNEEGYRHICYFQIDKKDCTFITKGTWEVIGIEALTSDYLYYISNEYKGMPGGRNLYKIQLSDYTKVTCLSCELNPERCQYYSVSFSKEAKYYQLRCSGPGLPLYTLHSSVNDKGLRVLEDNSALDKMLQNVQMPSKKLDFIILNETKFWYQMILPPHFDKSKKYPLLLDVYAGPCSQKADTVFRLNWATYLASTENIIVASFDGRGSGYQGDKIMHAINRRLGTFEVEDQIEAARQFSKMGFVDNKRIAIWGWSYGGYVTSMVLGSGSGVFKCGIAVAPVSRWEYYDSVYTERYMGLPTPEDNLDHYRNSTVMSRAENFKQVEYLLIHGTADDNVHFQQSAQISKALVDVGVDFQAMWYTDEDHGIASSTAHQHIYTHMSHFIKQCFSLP

| SMILES | IC50 (DPP4; recombinant human DPP4) [µM] | IC50 (recombinant human DPP7; recombinant human DPP7) [µM] | IC50 (recombinant human DPP8; recombinant human DPP8) [µM] | IC50 (Recombinant human FAP; [1]) [µM] | IC50 (recombinant human PREP; recombinant human PREP) [nM] | IC50 (recombinant human DPP9; recombinant human DPP9) [µM] | inhibition at 1 µM (DPP4; read-out: hDPP4 inhibition % at 1 μM) [%] | IC50 (recombinant human DPP7) [µM] | IC50 (recombinant human DPP8; [2]) [µM] | IC50 (Recombinant human FAP; [3]) [µM] | IC50 (recombinant human PREP; [3]) [nM] | IC50 (recombinant human DPP9; [4]) [µM] | hDPP4 inhibition % at 1 μM (DPP4; at 1 μM) | IC50 (DPP4; [4]) [µM] |
| --- | --- | --- | --- | --- | --- | --- | --- | --- | --- | --- | --- | --- | --- | --- |
| N#C[C@@H]1CCCN1C(=O)CN1CC[C@H](Nc2ccc(OC(F)(F)F)c3ncccc23)C1 [Example 246, (2S)-1-[2-[(3S)-3-[[8-(trifluoromethoxy)-5-quinolyl]amino]pyrrolidin-1-yl]acetyl]pyrrolidine-2-carbonitrile] | > 10 | 2.56 | > 30 | 0.0009 | 11300 | 21 |  |  |  |  |  |  |  |  |
| N#C[C@@H]1C[C@@H]2C[C@@H]2N1C(=O)CN1CCC(Nc2cccc3ncccc23)CC1 [Example 115, (1S,3S,5S)-2-(2-(4-(quinolin-5-ylamino)piperidin-1-yl)acetyl)-2-azabicyclo[3.1.0]hexane-3-carbonitrile] |  |  |  |  |  |  | 1.4 | 5.74 | 52.1 | 0.00564 | > 100000 | 45.1 |  |  |
| N#C[C@@H]1CCCN1C(=O)CN1CCC(Nc2ccnc3ccccc23)CC1 [Example 111, (S)-1-(2-(4-(quinolin-4-ylamino)piperidin-1-yl)acetyl)pyrrolidine-2-carbonitrile] |  |  |  |  |  |  |  | 0.503 | 31.9 | 0.00828 | 4170 | 21.1 | No inhibition** |  |
| COc1cc2nccc(O[C@H]3CCN(CC(=O)N4CCC[C@H]4C#N)C3)c2cc1OC [Example 101, (S)-1-(2-((S)-3-((6,7-dimethoxyquinolin-4-yl)oxy)pyrrolidin-1-yl)acetyl)pyrrolidine-2-carbonitrile] |  |  |  |  |  |  |  | 0.626 | > 100 | 0.00057 | 3020 | > 100 |  | > 1 |
| COc1ccc2c(O[C@H]3CCN(CC(=O)N4CCC[C@H]4C#N)C3)ccnc2c1 [Example 100, (S)-1-(2-((S)-3-((7-methoxyquinolin-4-yl)oxy)pyrrolidin-1-yl)acetyl)pyrrolidine-2-carbonitrile] |  |  |  |  |  |  |  | 1.15 | 73.8 | 0.0135 | 2490 | > 100 |  | > 1 |
| Cc1ccc2ncccc2c1N[C@H]1CCN(CC(=O)N2C[C@@H](F)C[C@H]2C#N)C1 [Example 259, (2S,4S)-4-fluoro-1-[2-[(3S)-3-[(6-methyl-5-quinolyl)amino]pyrrolidin-1-yl]acetyl]pyrrolidine-2-carbonitrile] | 1.27 | 3.31 | 18.6 | 0.0026 | 2470 | 8.43 |  |  |  |  |  |  |  |  |
| COc1cc(N[C@H]2CCN(CC(=O)N3CCC[C@H]3C#N)C2)c2cccnc2c1 [Example 237, (2S)-1-[2-[(3S)-3-[(7-methoxy-5-quinolyl)amino]pyrrolidin-1-yl]acetyl]pyrrolidine-2-carbonitrile] | 9.29 | 0.746 | 22.6 | 0.0015 | 6600 | 34.6 |  |  |  |  |  |  |  |  |
| N#C[C@@H]1C[C@H](F)CN1C(=O)CN1CCC(Oc2ccnc3ccc(C(F)(F)F)cc23)CC1 [Example 411, (2S,4S)-4-fluoro-1-[2-[4-[[6-(trifluoromethyl)-4-quinolyl]oxy]-1-piperidyl]acetyl]pyrrolidine-2-carbonitrile] | > 10 | 3.15 | 9.92 | 0.0025 | 10600 | 29.4 |  |  |  |  |  |  |  |  |
| N#C[C@@H]1C[C@H](F)CN1C(=O)CN1CC[C@H](Nc2ccnc3c(C(F)(F)F)cccc23)C1 [Example 271, (2S,4S)-4-fluoro-1-[2-[(3S)-3-[[8-(trifluoromethyl)-4-quinolyl]amino]pyrrolidin-1-yl]acetyl]pyrrolidine-2-carbonitrile] | 3.79 | 0.213 | 7.99 | 0.0014 | 3740 | 4.41 |  |  |  |  |  |  |  |  |
| CN(c1cnc2ccccc2c1)C1CCN(CC(=O)N2C[C@@H](F)C[C@H]2C#N)CC1 [Example 316, (2S,4S)-4-fluoro-1-[2-[4-[methyl(3-quinolyl)amino]-1-piperidyl]acetyl]pyrrolidine-2-carbonitrile] | > 10 | 1.87 | > 100 | 0.0031 | 500 | 8.2 |  |  |  |  |  |  |  |  |
| N#C[C@@H]1CC(F)(F)CN1C(=O)CN1CC[C@H](Nc2cnc3ccccc3c2)C1 [Example 6, (S)-4,4-difluoro-1-(2-((S)-3-(quinolin-3-ylamino)pyrrolidin-1-yl)acetyl)pyrrolidine-2-carbonitrile] |  |  |  |  |  |  |  | 0.0462 | 7.89 | 0.00183 | > 100000 | 5.71 |  | > 1 |
| N#Cc1ccc2c(N[C@H]3CCN(CC(=O)N4CCC[C@H]4C#N)C3)cccc2n1 [Example 231, 5-[[(3S)-1-[2-oxo-2-[(2S)-2-cyanopyrrolidin-1-yl]ethyl]pyrrolidin-3-yl]amino]quinoline-2-carbonitrile] | > 10 | 1.51 | 12.6 | 0.001 | 11500 | 21.6 |  |  |  |  |  |  |  |  |
| N#C[C@@H]1CC(F)(F)CN1C(=O)CN1CC[C@H](Nc2cccc3sccc23)C1 [Example 9, (S)-1-(2-((S)-3-(benzo[b]thiophen-4-ylamino)pyrrolidin-1-yl)acetyl)-4,4-difluoropyrrolidine-2-carbonitrile] |  |  |  |  |  |  |  | 0.0751 | 0.213 | 0.0011 | > 100000 | 12.3 |  | > 1 |
| N#C[C@@H]1CCCN1C(=O)CN1CC[C@H](Nc2cc(C(F)(F)F)cc3ncccc23)C1 [Example 238, (2S)-1-[2-[(3S)-3-[[7-(trifluoromethyl)-5-quinolyl]amino]pyrrolidin-1-yl]acetyl]pyrrolidine-2-carbonitrile] | > 10 | 2.21 | > 100 | 0.0014 | 3930 | 29.3 |  |  |  |  |  |  |  |  |
| N#C[C@@H]1CCCN1C(=O)CN1CC[C@H](Oc2cccc3cnccc23)C1 [Example 65, (S)-1-(2-((S)-3-(isoquinolin-5-yloxy)pyrrolidin-1-yl)acetyl)pyrrolidine-2-carbonitrile] |  |  |  |  |  |  |  | 3.4 | > 100 | 0.00677 | 85700 | 70.6 |  | > 1 |
| N#C[C@@H]1CCCN1C(=O)CN1CC[C@H](Nc2c(F)ccc3ncccc23)C1 [Example 241, (2S)-1-[2-[(3S)-3-[(6-fluoro-5-quinolyl)amino]pyrrolidin-1-yl]acetyl]pyrrolidine-2-carbonitrile] | > 10 | 17 | 77.3 | 0.0045 | 13000 | 48 |  |  |  |  |  |  |  |  |
